Columns and labels:
Assay type in all cases: in vivo
[1] = test system: pigweed (Amaranthus retroflexus); experiment: Test A preemergence, pigweed; conditions: 0 to 100 scale
Summary of the method: (§1)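 Pre: seeds planted in loam/sand, directed soil spray. Post: 2–10 cm plants, 1–2 leaf. Formulation: non-phytotoxic solvent + surfactant. Greenhouse ~10 d; visual injury vs untreated, 0 = no effect, 100 = complete control.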

corn (Zea mays) = experiment: Test A postemergence, corn; conditions: 0 to 100 scale
Summary of the method: as §1

[2] = test system: ryegrass, It. (Italian ryegrass, Lolium multiflorum); experiment: Test A postemergence, ryegrass, It.; conditions: 0 to 100 scale
Summary of the method: as §1

[3] = test system: ducksalad (Heteranthera limosa); experiment: Test B flooded paddy test, ducksalad; conditions: Flood, 250 g ai/ha; scale of 0 to 100 where 0 is no effect and 100 is complete control; 13 to 15 d
Summary of the method: (§2)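 Ratings use a 0-100 visual scale, where 100 is complete control, and compare treated plants with controls after 13 to 15 d of greenhouse growth. Compound went straight into paddy water kept 3 cm over the soil surface, applied to seedlings at the 2-leaf stage.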

[4] = test system: barnyardgrass (Echinochloa crus-galli); experiment: Test B flooded paddy test, barnyardgrass; conditions: Flood, 250 g ai/ha; scale of 0 to 100 where 0 is no effect and 100 is complete control; 13 to 15 d
Summary of the method: as §2

rice (Oryza sativa) = experiment: Test B flooded paddy test, rice; conditions: Flood, 250 g ai/ha; scale of 0 to 100 where 0 is no effect and 100 is complete control; 13 to 15 d
Summary of the method: as §2

kochia (Kochia scoparia) [5] = experiment: Test A postemergence, kochia; conditions: 0 to 100 scale
Summary of the method: as §1

[6] = test system: pigweed (Amaranthus retroflexus); experiment: Test A postemergence, pigweed; conditions: 0 to 100 scale
Summary of the method: as §1

[7] = test system: barnyardgrass (Echinochloa crus-galli); experiment: Test A postemergence, barnyardgrass; conditions: 0 to 100 scale
Summary of the method: as §1

[8] = test system: foxtail, giant (giant foxtail, Setaria faberii); experiment: Test A postemergence, foxtail, giant; conditions: 0 to 100 scale
Summary of the method: as §1

[9] = test system: blackgrass (Alopecurus myosuroides); experiment: Test A postemergence, blackgrass; conditions: 0 to 100 scale
Summary of the method: as §1

[10] = test system: ryegrass, It. (Italian ryegrass, Lolium multiflorum); experiment: Test A preemergence, ryegrass, It.; conditions: 0 to 100 scale
Summary of the method: as §1

[11] = test system: wheat (Triticum aestivum); experiment: Test A postemergence, wheat; conditions: 0 to 100 scale
Summary of the method: as §1

[12] = test system: sedge, umbrella (small-flower umbrella sedge, Cyperus difformis); experiment: Test B flooded paddy test, sedge, umbrella; conditions: Flood, 250 g ai/ha; scale of 0 to 100 where 0 is no effect and 100 is complete control; 13 to 15 d
Summary of the method: as §2

[13] = test system: ragweed (common ragweed, Ambrosia elatior); experiment: Test A postemergence, ragweed; conditions: 0 to 100 scale
Summary of the method: as §1

kochia (Kochia scoparia) [14] = experiment: Test A preemergence, kochia; conditions: 0 to 100 scale
Summary of the method: as §1

[15] = test system: ragweed (common ragweed, Ambrosia elatior); experiment: Test A preemergence, ragweed; conditions: 0 to 100 scale
Summary of the method: as §1

[16] = test system: barnyardgrass (Echinochloa crus-galli); experiment: Test A preemergence, barnyardgrass; conditions: 0 to 100 scale
Summary of the method: as §1

[17] = test system: galium (catchweed bedstraw, Galium aparine); experiment: Test A postemergence, galium; conditions: 0 to 100 scale
Summary of the method: as §1

[18] = test system: foxtail, giant (giant foxtail, Setaria faberii); experiment: Test A preemergence, foxtail, giant; conditions: 0 to 100 scale
Summary of the method: as §1

Compound | Plant response rating, Pigweed ([1]; 125 g ai/ha) | Plant response rating, Pigweed ([1]; 500 g ai/ha) | Plant response rating, Corn (corn (Zea mays); 125 g ai/ha) | Plant response rating, Corn (corn (Zea mays); 500 g ai/ha) | Plant response rating, Ryegrass, It. ([2]; 125 g ai/ha) | Plant response rating, Ryegrass, It. ([2]; 500 g ai/ha) | Plant response rating, Ducksalad [3] | Plant response rating, Barnyardgrass [4] | Plant response rating, Rice (rice (Oryza sativa)) | Plant response rating, Kochia (kochia (Kochia scoparia) [5]; 125 g ai/ha) | Plant response rating, Kochia (kochia (Kochia scoparia) [5]; 500 g ai/ha) | Plant response rating, Pigweed ([6]; 125 g ai/ha) | Plant response rating, Pigweed ([6]; 500 g ai/ha) | Plant response rating, Barnyardgrass ([7]; 125 g ai/ha) | Plant response rating, Barnyardgrass ([7]; 500 g ai/ha) | Plant response rating, Foxtail, Giant ([8]; 125 g ai/ha) | Plant response rating, Foxtail, Giant ([8]; 500 g ai/ha) | Plant response rating, Blackgrass ([9]; 125 g ai/ha) | Plant response rating, Blackgrass ([9]; 500 g ai/ha) | Plant response rating, Ryegrass, It. ([10]; 125 g ai/ha) | further results
O=C1NCC(/C=C/c2cccc(F)c2)C1C(=O)Nc1cccc(F)c1F (stereo not drawn) [Compound 30] | 0 | 0 | 0 | 20 | 0 | 0 | 95 | 70 | 15 | 0 | 0 | 0 | 0 | 50 | 80 | 40 | 80 | 0 | 0 | 0 | Plant response rating, Ryegrass, It. ([10]; 500 g ai/ha): 0; Plant response rating, Wheat ([11]; 125 g ai/ha): 0; Plant response rating, Wheat ([11]; 500 g ai/ha): 20; Plant response rating, Sedge, Umbrella [12]: 0; Plant response rating, Ragweed ([13]; 125 g ai/ha): 0; Plant response rating, Ragweed ([13]; 500 g ai/ha): 0; Plant response rating, Kochia (kochia (Kochia scoparia) [14]; 125 g ai/ha): 70; Plant response rating, Kochia (kochia (Kochia scoparia) [14]; 500 g ai/ha): 80; Plant response rating, Ragweed ([15]; 125 g ai/ha): 0; Plant response rating, Ragweed ([15]; 500 g ai/ha): 0; Plant response rating, Barnyardgrass ([16]; 125 g ai/ha): 50; Plant response rating, Barnyardgrass ([16]; 500 g ai/ha): 90; Plant response rating, Galium ([17]; 125 g ai/ha): 0; Plant response rating, Galium ([17]; 500 g ai/ha): 20; Plant response rating, Foxtail, Giant ([18]; 125 g ai/ha): 60; Plant response rating, Foxtail, Giant ([18]; 500 g ai/ha): 90
O=C1NCC(C#Cc2ccc(F)cc2)C1C(=O)Nc1cccc(F)c1F (stereo not drawn) [Compound 16] | 0 | 0 | 0 | 0 | 0 | 0 | 70 | 0 | 0 | 0 | 0 | 0 | 0 | 40 | 60 | 20 | 40 | 0 | 0 | 0 | Plant response rating, Ryegrass, It. ([10]; 500 g ai/ha): 0; Plant response rating, Wheat ([11]; 125 g ai/ha): 0; Plant response rating, Wheat ([11]; 500 g ai/ha): 0; Plant response rating, Sedge, Umbrella [12]: 0; Plant response rating, Ragweed ([13]; 125 g ai/ha): 0; Plant response rating, Ragweed ([13]; 500 g ai/ha): 0; Plant response rating, Kochia (kochia (Kochia scoparia) [14]; 125 g ai/ha): 0; Plant response rating, Kochia (kochia (Kochia scoparia) [14]; 500 g ai/ha): 0; Plant response rating, Ragweed ([15]; 125 g ai/ha): 0; Plant response rating, Ragweed ([15]; 500 g ai/ha): 0; Plant response rating, Barnyardgrass ([16]; 125 g ai/ha): 20; Plant response rating, Barnyardgrass ([16]; 500 g ai/ha): 90; Plant response rating, Galium ([17]; 125 g ai/ha): 0; Plant response rating, Galium ([17]; 500 g ai/ha): 0; Plant response rating, Foxtail, Giant ([18]; 125 g ai/ha): 60; Plant response rating, Foxtail, Giant ([18]; 500 g ai/ha): 90
O=C1NCC(/C=C/c2ccccc2F)C1C(=O)Nc1cccc(F)c1F (stereo not drawn) [Compound 28] | 0 | 0 | 0 | 0 | 0 | 0 | 90 | 90 | 10 | 0 | 0 | 0 | 0 | 50 | 70 | 20 | 50 | 0 | 0 | 0 | Plant response rating, Ryegrass, It. ([10]; 500 g ai/ha): 0; Plant response rating, Wheat ([11]; 125 g ai/ha): 0; Plant response rating, Wheat ([11]; 500 g ai/ha): 0; Plant response rating, Sedge, Umbrella [12]: 50; Plant response rating, Ragweed ([13]; 125 g ai/ha): 0; Plant response rating, Ragweed ([13]; 500 g ai/ha): 0; Plant response rating, Kochia (kochia (Kochia scoparia) [14]; 125 g ai/ha): 0; Plant response rating, Kochia (kochia (Kochia scoparia) [14]; 500 g ai/ha): 0; Plant response rating, Ragweed ([15]; 125 g ai/ha): 0; Plant response rating, Ragweed ([15]; 500 g ai/ha): 0; Plant response rating, Barnyardgrass ([16]; 125 g ai/ha): 50; Plant response rating, Barnyardgrass ([16]; 500 g ai/ha): 90; Plant response rating, Galium ([17]; 125 g ai/ha): 0; Plant response rating, Galium ([17]; 500 g ai/ha): 20; Plant response rating, Foxtail, Giant ([18]; 125 g ai/ha): 50; Plant response rating, Foxtail, Giant ([18]; 500 g ai/ha): 90

— patent US10906873B2, “Substituted cyclic amides as herbicides” (FMC Corporation, priority 2015, dated 2021)
